Where two headings read alike, the source gives them in different places.
Experiments:
Rhesus PDE2A3 = Rhesus PDE2A3 (Macaca mulatta, UniProt B3VTJ2); test: PDE2 fluorescence polarization (IMAP FP) inhibition assay, rhesus enzyme; assay type: biochemical, rhesus macaque
In short: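 IMAP FP (mP from parallel and perpendicular fluorescence against substrate-only control) was read ≥1 h after adding binding reagent. The preceding 60 min room-temperature reaction contained FAM-cAMP (50 nM) and cGMP (1 uM) in pH 7.2 Tris buffer with MgCl2 and DTT. Enzyme was supernatant of sonicated AD293 cells expressing rhesus PDE2A3; compounds were 3-fold titrated, DMSO 1% final.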

human PDE2A1 = human PDE2A1 (Homo sapiens (Human), UniProt O00408); test: IMAP FP PDE selectivity panel, human PDE2A1; assay type: biochemical
In short: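 IMAP FP format: substrate 50 nM FAM-cAMP plus 1000 nM cGMP, enzyme (insect-cell GST-tagged human PDE2A1) at ~20% conversion, 60 min reaction at room temperature. Apparent inhibition constants calculated from parallel/perpendicular fluorescence with KM 10,000 nM.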

[1] = Rhesus PDE2, Lab B, read-out: Rhesus PDE2 Ki (nM) - Lab B
[2] = Human PDE2, Lab B, read-out: Human PDE2 Ki (nM) - Lab B
[3] = Rhesus PDE2, Lab A, read-out: Rhesus PDE2 Ki (nM) - Lab A
[4] = Human PDE2, Lab A, read-out: Human PDE2 Ki (nM) - Lab A

Sequence of Rhesus PDE2A3 (B3VTJ2 1-941): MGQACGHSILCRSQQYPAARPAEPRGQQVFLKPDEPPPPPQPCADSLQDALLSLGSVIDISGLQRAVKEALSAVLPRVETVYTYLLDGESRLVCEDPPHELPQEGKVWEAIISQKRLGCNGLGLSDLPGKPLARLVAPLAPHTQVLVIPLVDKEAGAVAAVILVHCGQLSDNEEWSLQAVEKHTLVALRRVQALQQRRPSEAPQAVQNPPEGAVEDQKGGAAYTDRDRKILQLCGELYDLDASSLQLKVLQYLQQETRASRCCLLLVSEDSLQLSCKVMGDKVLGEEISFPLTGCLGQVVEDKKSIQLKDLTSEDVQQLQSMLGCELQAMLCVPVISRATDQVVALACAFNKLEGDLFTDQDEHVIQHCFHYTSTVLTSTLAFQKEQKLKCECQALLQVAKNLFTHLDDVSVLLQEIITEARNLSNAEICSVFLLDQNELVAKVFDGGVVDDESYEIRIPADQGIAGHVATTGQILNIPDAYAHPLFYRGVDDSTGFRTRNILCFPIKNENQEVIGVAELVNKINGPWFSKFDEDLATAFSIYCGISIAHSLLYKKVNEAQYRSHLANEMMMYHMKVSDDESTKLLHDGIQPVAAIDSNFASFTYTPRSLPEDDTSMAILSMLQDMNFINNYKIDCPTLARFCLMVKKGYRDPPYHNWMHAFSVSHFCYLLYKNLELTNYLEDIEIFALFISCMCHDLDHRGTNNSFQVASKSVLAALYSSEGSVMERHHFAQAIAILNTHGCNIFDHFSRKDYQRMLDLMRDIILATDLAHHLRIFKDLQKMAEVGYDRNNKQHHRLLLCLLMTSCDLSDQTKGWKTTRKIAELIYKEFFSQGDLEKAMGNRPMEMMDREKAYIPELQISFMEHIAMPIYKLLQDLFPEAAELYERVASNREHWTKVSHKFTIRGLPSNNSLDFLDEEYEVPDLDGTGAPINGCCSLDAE
Sequence of human PDE2A1 (O00408 other isoform, or with tags, fused parts or gaps): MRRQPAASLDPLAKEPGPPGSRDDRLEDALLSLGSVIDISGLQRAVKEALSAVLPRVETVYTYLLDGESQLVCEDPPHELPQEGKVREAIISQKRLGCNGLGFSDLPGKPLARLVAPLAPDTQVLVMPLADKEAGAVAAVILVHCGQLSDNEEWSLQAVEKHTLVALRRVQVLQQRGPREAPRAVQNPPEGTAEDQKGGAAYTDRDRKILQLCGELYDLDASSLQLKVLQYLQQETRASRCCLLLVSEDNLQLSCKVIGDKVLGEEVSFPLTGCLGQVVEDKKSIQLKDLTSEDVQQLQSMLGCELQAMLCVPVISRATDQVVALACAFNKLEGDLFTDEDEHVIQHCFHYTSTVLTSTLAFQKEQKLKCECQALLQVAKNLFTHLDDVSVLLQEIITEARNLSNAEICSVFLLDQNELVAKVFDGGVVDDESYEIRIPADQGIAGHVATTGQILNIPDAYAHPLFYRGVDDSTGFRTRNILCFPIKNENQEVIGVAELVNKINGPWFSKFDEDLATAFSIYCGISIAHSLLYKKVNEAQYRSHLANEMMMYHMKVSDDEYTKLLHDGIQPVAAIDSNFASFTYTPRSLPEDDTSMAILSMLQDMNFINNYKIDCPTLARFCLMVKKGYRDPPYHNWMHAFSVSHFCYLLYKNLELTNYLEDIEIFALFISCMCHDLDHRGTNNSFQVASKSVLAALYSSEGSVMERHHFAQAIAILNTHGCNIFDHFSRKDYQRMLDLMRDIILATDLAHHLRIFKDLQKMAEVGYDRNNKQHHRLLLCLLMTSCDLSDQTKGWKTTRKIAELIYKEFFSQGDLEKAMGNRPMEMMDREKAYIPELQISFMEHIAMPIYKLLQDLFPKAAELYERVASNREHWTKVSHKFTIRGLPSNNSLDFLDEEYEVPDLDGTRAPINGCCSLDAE

A Ki (Rhesus PDE2A3; [1]) of 4.2 nM and a Ki (human PDE2A1; [2]) of 2.9 nM were found for `CC(C)[C@@H](NC(=O)c1cc(=O)[nH]c(-c2ccccc2)n1)c1ccc(C(F)(F)F)c(F)c1` [Example 383, N-{(1R)-1-[3-fluoro-4-(trifluoromethyl)phenyl]-2-methylpropyl}-6-oxo-2-phenyl-1,6-dihydropyrimidine-4-carboxamide] in this work.
A Ki (Rhesus PDE2A3; [3]) of 1.7 nM, a Ki (Rhesus PDE2A3; [1]) of 2.5 nM and a Ki (human PDE2A1; [2]) of 2.7 nM were found for `CC(C)[C@@H](NC(=O)c1cc(=O)[nH]c(C2CC2)n1)c1ccc(S(F)(F)(F)(F)F)cc1` [Example 247, 2-cyclopropyl-N-{(1R)-2-methyl-1-[4-(pentafluoro-λ^6-sulfanyl)phenyl]propyl}-6-oxo-1,6-dihydropyrimidine-4-carboxamide] in this work.
A Ki (Rhesus PDE2A3; [3]) of 11 nM and a Ki (human PDE2A1; [4]) of 5.1 nM were found for `Cc1nc(C(=O)N[C@@H](c2ccc(OC(F)(F)F)cc2)C(C)C)cc(=O)[nH]1` [Example 32, 2-methyl-N-{(1R)-2-methyl-1-[4-(trifluoromethoxy)phenyl]propyl}-6-oxo-1,6-dihydropyrimidine-4-carboxamide] in this work.
A Ki (Rhesus PDE2A3; [3]) of 0.54 nM and a Ki (human PDE2A1; [4]) of 0.45 nM were found for `COc1ccc(Cc2nc(C(=O)NC3(c4ccc(C(F)(F)F)cc4)CC3)cc(=O)[nH]2)cc1OC` [Example 3, 2-(3,4-dimethoxybenzyl)-6-oxo-N-{1-[4-(trifluoromethyl)phenyl]-cyclopropyl}-1,6-dihydropyrimidine-4-carboxamide] in this work.
A Ki (Rhesus PDE2A3; [3]) of 23 nM and a Ki (human PDE2A1; [4]) of 18 nM were found for `Cc1nc(C(=O)N[C@@H](c2ccc(C(F)(F)F)cc2)C2CC2)cc(=O)[nH]1` [Example 69, N-{(R)-cyclopropyl[4-(trifluoromethyl)phenyl]methyl}-2-methyl-6-oxo-1,6-dihydropyrimidine-4-carboxamide] in this work.
A Ki (Rhesus PDE2A3; [1]) of 7.2 nM and a Ki (human PDE2A1; [2]) of 9.2 nM were found for `Cc1nc(C(=O)N[C@@H](c2ccc(S(F)(F)(F)(F)F)cc2)C2(C)CC2)cc(=O)[nH]1` [Example 424, 2-methyl-N-{(R)-(1-methylcyclopropyl)[4-(pentafluoro-λ^6-sulfanyl)phenyl]methyl}-6-oxo-1,6-dihydropyrimidine-4-carboxamide] in this work.
A Ki (Rhesus PDE2A3; [3]) of 8.8 nM, a Ki (Rhesus PDE2A3; [1]) of 12 nM and a Ki (human PDE2A1; [2]) of 15 nM were found for `C[C@@H](NC(=O)c1cc(=O)[nH]c(-c2ncccn2)n1)c1ccc(C(F)(F)F)c(F)c1` [Example 98, N-{(1R)-1-[3-fluoro-4-(trifluoromethyl)phenyl]ethyl}-6-oxo-1,6-dihydro-2,2′-bipyrimidine-4-carboxamide] in this work.
A Ki (Rhesus PDE2A3; [3]) of 1140 nM and a Ki (human PDE2A1; [4]) of 663 nM were found for `Cc1nc(C(=O)NC(C)c2ccc(C(F)(F)F)cc2C)cc(=O)[nH]1` (centres unmarked) [Example 25, 2-methyl-N-{1-[2-methyl-4-(trifluoromethyl)phenyl]ethyl}-6-oxo-1,6-dihydropyrimidine-4-carboxamide] in this work.
A Ki (Rhesus PDE2A3; [1]) of 14 nM and a Ki (human PDE2A1; [2]) of 9.4 nM were found for `O=C(NC(CCO)c1ccc(C(F)(F)F)cc1)c1cc(=O)[nH]c(-c2ccccc2)n1` (centres unmarked) [Example 421, N-{3-hydroxy-1-[4-(trifluoromethyl)phenyl]propyl}-6-oxo-2-phenyl-1,6-dihydropyrimidine-4-carboxamide] in this work.
A Ki (Rhesus PDE2A3; [3]) of 131 nM and a Ki (human PDE2A1; [4]) of 138 nM were found for `Cc1nc(C(=O)N[C@H](C)c2ccc(-c3ccccc3F)cc2)cc(=O)[nH]1` [Example 324, N-[(1R)-1-(2′-fluorobiphenyl-4-yl)ethyl]-2-methyl-6-oxo-1,6-dihydropyrimidine-4-carboxamide] in this work.
A Ki (Rhesus PDE2A3; [3]) of 17 nM, a Ki (Rhesus PDE2A3; [1]) of 23 nM and a Ki (human PDE2A1; [4]) of about 13 nM were found for `CC[C@@H](NC(=O)c1cc(=O)[nH]c(C2CC2)n1)c1ccc(C(F)(F)F)c(F)c1` [Example 254, 2-cyclopropyl-N-{(1R)-1-[3-fluoro-4-(trifluoromethyl)phenyl]propyl}-6-oxo-1,6-dihydropyrimidine-4-carboxamide] in this work. The Ki (human PDE2A1; [2]) was 22 nM.
A Ki (Rhesus PDE2A3; [1]) of 1.2 nM and a Ki (human PDE2A1; [2]) of 1.1 nM were found for `CC[C@@H](NC(=O)c1cc(=O)[nH]c(Cc2ccc(OC)c(F)c2)n1)c1ccc(OC(F)(F)F)c(F)c1` [Example 528, 2-(3-fluoro-4-methoxybenzyl)-N-{(1R)-1-[3-fluoro-4-(trifluoromethoxy)phenyl]propyl}-6-oxo-1,6-dihydropyrimidine-4-carboxamide] in this work.
A Ki (Rhesus PDE2A3; [3]) of 51 nM and a Ki (human PDE2A1; [4]) of 35 nM were found for `CC(NC(=O)c1cc(=O)[nH]c(-c2ccccc2)n1)c1ccc(C(F)(F)F)cc1Cl` (centres unmarked) [Example 147, N-{1-[2-chloro-4-(trifluoromethyl)phenyl]ethyl}-6-oxo-2-phenyl-1,6-dihydropyrimidine-4-carboxamide] in this work.
A Ki (Rhesus PDE2A3; [3]) of 12 nM and a Ki (human PDE2A1; [4]) of 5.6 nM were found for `CC[C@@H](NC(=O)c1cc(=O)[nH]c(-c2ncccn2)n1)c1ccc(OC(F)(F)F)cc1` [Example 106, 6-oxo-N-{(1R)-1-[4-(trifluoromethoxy)phenyl]propyl}-1,6-dihydro-2,2′-bipyrimidine-4-carboxamide] in this work.
A Ki (Rhesus PDE2A3; [3]) of 29 nM and a Ki (human PDE2A1; [4]) of 17 nM were found for `C[C@@H](NC(=O)c1cc(=O)[nH]c(C2CC2)n1)c1ccc(C(F)(F)F)c(Cl)c1` [Example 232, N-{(1R)-1-[3-chloro-4-(trifluoromethyl)phenyl]ethyl}-2-cyclopropyl-6-oxo-1,6-dihydropyrimidine-4-carboxamide] in this work.
A Ki (Rhesus PDE2A3; [3]) of 2.6 nM and a Ki (human PDE2A1; [4]) of 1.5 nM were found for `C[C@@H](NC(=O)c1cc(=O)[nH]c(-c2ccccc2)n1)c1ccc(OC(F)(F)F)c(F)c1` [Example 154, N-{(1R)-1-[3-fluoro-4-(trifluoromethoxy)phenyl]ethyl}-6-oxo-2-phenyl-1,6-dihydropyrimidine-4-carboxamide] in this work.
A Ki (Rhesus PDE2A3; [3]) of 33 nM and a Ki (human PDE2A1; [4]) of 18 nM were found for `CC(NC(=O)c1cc(=O)[nH]c(C2CC2)n1)c1ccc(C2CC2)cc1` (centres unmarked) [Example 195, 2-cyclopropyl-N-[1-(4-cyclopropylphenyl)ethyl]-6-oxo-1,6-dihydropyrimidine-4-carboxamide] in this work.
A Ki (Rhesus PDE2A3; [3]) of 2 nM, a Ki (Rhesus PDE2A3; [1]) of 4 nM and a Ki (human PDE2A1; [2]) of 3.6 nM were found for `CC(C)[C@@H](NC(=O)c1cc(=O)[nH]c(C2CC2)n1)c1ccc(C(F)(F)F)c(F)c1` [Example 251, 2-cyclopropyl-N-{(1R)-1-[3-fluoro-4-(trifluoromethyl)phenyl]-2-methylpropyl}-6-oxo-1,6-dihydropyrimidine-4-carboxamide] in this work.
A Ki (Rhesus PDE2A3; [3]) of 3.6 nM, a Ki (Rhesus PDE2A3; [1]) of 4.7 nM and a Ki (human PDE2A1; [4]) of 2.2 nM were found for `CC(C)[C@@H](NC(=O)c1cc(=O)[nH]c(-c2ccccc2)n1)c1ccc(OC(F)(F)F)c(F)c1` [Example 127, N-{(1R)-1-[3-fluoro-4-(trifluoromethoxy)phenyl]-2-methylpropyl}-6-oxo-2-phenyl-1,6-dihydropyrimidine-4-carboxamide] in this work. For the same compound, the Ki (human PDE2A1; [2]) was 3.9 nM.
A Ki (Rhesus PDE2A3; [3]) of 5.5 nM and a Ki (human PDE2A1; [4]) of 3.4 nM were found for `C[C@@H](NC(=O)c1cc(=O)[nH]c(-c2ncccn2)n1)c1ccc(OC(F)(F)F)c(F)c1` [Example 103, N-{(1R)-1-[3-fluoro-4-(trifluoromethoxy)phenyl]ethyl}-6-oxo-1,6-dihydro-2,2′-bipyrimidine-4-carboxamide] in this work.
A Ki (Rhesus PDE2A3; [1]) of 29 nM and a Ki (human PDE2A1; [2]) of 30 nM were found for `Cc1nc(C(=O)N[C@@H](c2ccc(OC(F)F)cc2)C2(C)CC2)cc(=O)[nH]1` [Example 425, N-[(R)-[4-(difluoromethoxy)phenyl](1-methylcyclopropyl)methyl]-2-methyl-6-oxo-1,6-dihydropyrimidine-4-carboxamide] in this work.
A Ki (Rhesus PDE2A3; [1]) of 1.9 nM and a Ki (human PDE2A1; [2]) of 1.9 nM were found for `COc1ccc(Cc2nc(C(=O)N[C@@H](c3ccc(C(F)(F)F)cc3)C3CC3)cc(=O)[nH]2)cc1` [Example 481, N-{(R)-cyclopropyl[4-(trifluoromethyl)phenyl]methyl}-2-(4-methoxybenzyl)-6-oxo-1,6-dihydropyrimidine-4-carboxamide] in this work.
A Ki (Rhesus PDE2A3; [3]) of 14 nM and a Ki (human PDE2A1; [4]) of 8.8 nM were found for `Cc1nc(C(=O)N[C@@H](c2ccc(C(F)(F)F)c(F)c2)C(C)C)cc(=O)[nH]1` [Example 240, N-{(1R)-1-[3-fluoro-4-(trifluoromethyl)phenyl]-2-methylpropyl}-2-methyl-6-oxo-1,6-dihydropyrimidine-4-carboxamide] in this work.
A Ki (Rhesus PDE2A3; [3]) of 14 nM and a Ki (human PDE2A1; [4]) of 9.1 nM were found for `O=C(NC1(c2ccc(OC(F)(F)F)cc2)CC1)c1cc(=O)[nH]c(C2CC2)n1` [Example 299, 2-cyclopropyl-6-oxo-N-{1-[4-(trifluoromethoxy)phenyl]cyclopropyl}-1,6-dihydropyrimidine-4-carboxamide] in this work.
A Ki (Rhesus PDE2A3; [3]) of 237 nM and a Ki (human PDE2A1; [4]) of 199 nM were found for `COc1ccc([C@@H](C)NC(=O)c2cc(=O)[nH]c(-c3ncccn3)n2)cc1` [Example 86, N-[(1R)-1-(4-methoxyphenyl)ethyl]-6-oxo-1,6-dihydro-2,2′-bipyrimidine-4-carboxamide] in this work.
A Ki (Rhesus PDE2A3; [1]) of 55 nM and a Ki (human PDE2A1; [2]) of 49 nM were found for `O=C(NC(c1ccc(C(F)(F)F)cc1)C(F)(F)F)c1cc(=O)[nH]c(-c2ccccc2)n1` (centres unmarked) [Example 393, 6-oxo-2-phenyl-N-{2,2,2-trifluoro-1-[4-(trifluoromethyl)phenyl]ethyl}-1,6-dihydropyrimidine-4-carboxamide] in this work.
A Ki (Rhesus PDE2A3; [1]) of 2 nM and a Ki (human PDE2A1; [2]) of 2.5 nM were found for `CC(C)c1ccc([C@H](NC(=O)c2cc(=O)[nH]c(C3CC3)n2)C2(C)CC2)cc1` [Example 444, 2-cyclopropyl-N-{(R)-(1-methylcyclopropyl)[4-(1-methylethyl)phenyl]methyl}-6-oxo-1,6-dihydropyrimidine-4-carboxamide] in this work.
A Ki (Rhesus PDE2A3; [1]) of 7.5 nM and a Ki (human PDE2A1; [2]) of 7.8 nM were found for `CC(C)(C)[C@@H](NC(=O)c1cc(=O)[nH]c(-c2ncccn2)n1)c1ccc(OC(F)(F)F)cc1` [Example 461, N-{(1R)-2,2-dimethyl-1-[4-(trifluoromethoxy)phenyl]propyl}-6-oxo-1,6-dihydro-2,2′-bipyrimidine-4-carboxamide] in this work.
A Ki (Rhesus PDE2A3; [3]) of 63 nM and a Ki (human PDE2A1; [4]) of 43 nM were found for `Cc1nc(C(=O)NC(C)c2ccc(C(C)(C)C)cc2)cc(=O)[nH]1` (single isomer, unassigned) [Example 309, (R)- or (S)-N-[1-(4-tert-butylphenyl)ethyl]-2-methyl-6-oxo-1,6-dihydropyrimidine-4-carboxamide] in this work.
